Among the data in patent publication US20080021217A1, “HETEROCYCLIC INHIBITORS OF RHO KINASE” (priority 2006, published 2008) are IC50 values, retold here.

pIC50: −log10 of the molar value.

The target in test [1] is T1, recombinant N-terminal GST-tagged human Rho kinase 2 (ROCK2, amino acids 1-552) (Homo sapiens, UniProt O75116).
T1 construct: ROCK2, amino acids 1-552, Invitrogen Inc., cat #PV3759; GST (N); purchased Invitrogen Inc. PV3759
The test can be described thus: In vitro Rho kinase assay (luciferase-based ATP consumption), ROCK2. It is filed as biochemical. On the procedure: (§1) Rho kinase biochemical assays described below depend on firefly luciferase-based, indirect measurement of total ATP consumption by the kinase following incubation with substrate and ATP. 25 μl of Rho kinase assay buffer (20 mM Tris-HCL [pH 7.5], 1 mM MgCl2, 0.4 mM CaCl2, 0.15 mM EGTA, 0.1 mg/ml bovine serum albumin) containing 0.82 μg/ml of recombinant N-terminal GST-tagged human Rho kinase 1 (ROCK1, amino acids 1-535, Invitrogen Inc., cat. #PV-3691) or recombinant N-terminal GST-tagged human Rho kinase 2 (ROCK2, amino acids 1-552, Invitrogen Inc., cat #PV3759), 100 μg/ml S6 peptide substrate (related to amino acids 218-249 of the human 40S ribosomal protein S6, and suitable for ROCK1 or ROCK2, e.g. Upstate/Millipore Inc., cat #12-420), and 3 µM ATP are dispensed to wells of a 384 multi-well opaque plate. The plate is centrifuged for 30 seconds at approximately 200×g. 240 nl of test compound in DMSO is dispensed to each well by passive pin transfer. The lag phase of this in vitro kinase reaction permits addition of compounds soon after the reaction initiates. The reaction is allowed to incubate at 30° C. for 2 hours. The assay plates are sealed and maintained in a humidified environment. After 2 hours, 25 μl of easyLite protein kinase assay reagent (Perkin-Elmer, Inc.) is dispensed. After an additional 10 minute incubation at room temperature (about 22° C.), luminescence activity is measured on a Molecular Devices Analyst multi-mode plate reader or other suitable plate reader. Kinase inhibition results in less ATP consumption, and therefore increased luminescence signal. Negative control activity is measured with DMSO lacking any test compound. The positive control is 2-methyl-1-(4-methylisoquinolin-5-ylsulfonyl)perhydro-1,4-diazepine hydrochloride (aka H-1152P, HCl salt). Efficacy is measured as a percentage of positive control activity. […] In some cases, kinase reactions and compound testing are performed in 1536 multi-well plates under similar conditions, with assay volumes appropriately scaled. The designated NT means the cited example was not tested.

For test [2], the target named is T2, recombinant N-terminal GST-tagged human Rho kinase 1 (ROCK1, amino acids 1-535) (Homo sapiens, UniProt Q13464).
T2 construct: ROCK1, amino acids 1-535, Invitrogen Inc., cat. #PV-3691; GST (N); purchased Invitrogen Inc. PV-3691
The test can be described thus: In vitro Rho kinase assay (luciferase-based ATP consumption), ROCK1. The format is biochemical. On the procedure:
as §1

T1 sequence (O75116 1-552): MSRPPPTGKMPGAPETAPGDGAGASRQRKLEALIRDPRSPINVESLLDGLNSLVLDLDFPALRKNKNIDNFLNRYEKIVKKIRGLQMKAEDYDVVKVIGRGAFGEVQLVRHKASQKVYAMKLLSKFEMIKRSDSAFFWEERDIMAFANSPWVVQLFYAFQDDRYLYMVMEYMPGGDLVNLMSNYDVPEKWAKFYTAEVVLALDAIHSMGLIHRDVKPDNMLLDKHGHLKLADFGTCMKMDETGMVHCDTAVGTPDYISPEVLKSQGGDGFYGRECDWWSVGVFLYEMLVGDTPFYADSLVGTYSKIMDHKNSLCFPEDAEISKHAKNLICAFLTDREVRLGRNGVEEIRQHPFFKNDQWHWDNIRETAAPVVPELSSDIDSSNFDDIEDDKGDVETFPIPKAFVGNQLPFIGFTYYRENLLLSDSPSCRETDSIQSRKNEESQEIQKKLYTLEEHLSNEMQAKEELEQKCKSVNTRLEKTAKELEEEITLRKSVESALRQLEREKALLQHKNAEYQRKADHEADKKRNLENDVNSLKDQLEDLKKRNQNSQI
T2 sequence (Q13464 1-535): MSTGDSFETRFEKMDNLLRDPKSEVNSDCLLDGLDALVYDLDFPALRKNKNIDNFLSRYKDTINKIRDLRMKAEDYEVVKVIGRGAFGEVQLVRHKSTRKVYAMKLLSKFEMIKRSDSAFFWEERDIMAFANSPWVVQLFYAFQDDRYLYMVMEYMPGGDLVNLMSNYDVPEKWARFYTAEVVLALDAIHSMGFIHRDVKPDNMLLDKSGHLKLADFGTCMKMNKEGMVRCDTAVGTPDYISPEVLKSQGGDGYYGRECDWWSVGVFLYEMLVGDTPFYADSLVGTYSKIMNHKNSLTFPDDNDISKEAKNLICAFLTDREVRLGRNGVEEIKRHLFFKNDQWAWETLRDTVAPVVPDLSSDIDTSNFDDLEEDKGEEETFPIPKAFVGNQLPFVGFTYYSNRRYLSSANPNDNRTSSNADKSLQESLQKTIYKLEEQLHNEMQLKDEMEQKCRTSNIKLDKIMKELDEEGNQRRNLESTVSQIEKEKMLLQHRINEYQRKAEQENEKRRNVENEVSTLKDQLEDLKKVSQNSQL

For orientation: pIC50 means the IC50 on a negative log10 scale, so that one unit is a factor of ten. As to `O=C(NCc1nc(-c2ccncc2)n[nH]1)c1ccsc1` [Example 17, N-((3-(pyridin-4-yl)-1H-1,2,4-triazol-5-yl)methyl)thiophene-3-carboxamide], the pIC50 in test [1] and in test [2] was more than 5.30 each time.
For the compound `COc1ccc(C(=O)NCc2nc(-c3ccncc3)n[nH]2)cc1` [Example 19, 4-methoxy-N-((3-(pyridin-4-yl)-1H-1,2,4-triazol-5-yl)methyl)benzamide], the pIC50 in test [1] and in test [2] was more than 5.30 throughout.
Turning to `Cc1csc(C(=O)NCc2nc(-c3ccncc3)n[nH]2)c1` [Example 48, 4-Methyl-N-((3-(pyridin-4-yl)-1H-1,2,4-triazol-5-yl)methyl)thiophene-2-carboxamide], the negative-log IC50 (pIC50) in test [1] and in test [2] was more than 5.30 throughout.
Regarding `CN(Cc1nc(-c2ccncc2)n[nH]1)C(=O)c1cccs1` [Example 57, N-Methyl-N-((3-(pyridin-4-yl)-1H-1,2,4-triazol-5-yl)methyl)thiophene-2-carboxamide], the pIC50 in test [1] and in test [2] was less than 5.30 in each case.
Turning to `CCc1cccc(C(=O)NCc2nc(-c3ccncc3)n[nH]2)c1O` [Example 52, 3-Ethyl-2-hydroxy-N-((3-(pyridin-4-yl)-1H-1,2,4-triazol-5-yl)methyl)benzamide], the pIC50 in test [1] and in test [2] was more than 5.30 throughout.
Take `O=S(=O)(NCc1nc(-c2ccncc2)n[nH]1)c1ccc(OCc2ccccc2)cc1` [Example 54, 4-(Benzyloxy)-N-((3-(pyridin-4-yl)-1H-1,2,4-triazol-5-yl)methyl)benzenesulfonamide]: the pIC50 in test [1] and in test [2] was less than 5.30 throughout.
For the compound `COc1cccc(C(=O)NCc2nc(-c3ccncc3)n[nH]2)c1` [Example 18, 3-methoxy-N-((3-(pyridin-4-yl)-1H-1,2,4-triazol-5-yl)methyl)benzamide], the pIC50 in test [1] and in test [2] was less than 5.30 each time.
For the compound `O=C(NCc1nc(-c2ccncc2)co1)c1ccc(O)cc1O` [Example 8, 2,4-dihydroxy-N-((4-(pyridin-4-yl)oxazol-2-yl)methyl)benzamide], the pIC50 in test [1] and in test [2] was more than 5.30 throughout.
For `CS(=O)(=O)Nc1ccccc1C(=O)NCc1nc(-c2ccncc2)n[nH]1` [Example 29, 2-(Methylsulfonamido)-N-((3-(pyridin-4-yl)-1H-1,2,4-triazol-5-yl)methyl)benzamide], the pIC50 in test [1] and in test [2] was less than 5.30 each time.
Turning to `O=C(NCc1nc(-c2ccncc2)n[nH]1)c1n[nH]c2ccccc12` [Example 33, N-((3-(Pyridin-4-yl)-1H-1,2,4-triazol-5-yl)methyl)-1H-indazole-3-carboxamide], the pIC50 in test [1] was more than 5.30; in test [2] it was less than 5.30.
The matching figures for `CS(=O)(=O)Nc1cccc(C(=O)NCc2nc(-c3c[nH]c4ncccc34)cs2)c1` [Example 73, N-((4-(1H-pyrrolo[2,3-b]pyridin-3-yl)thiazol-2-yl)methyl)-3-(methylsulfonamido)benzamide]: more than 5.30 and more than 5.30.
The matching figures for `Cc1ccsc1C(=O)NCc1nc(-c2ccncc2)n[nH]1` [Example 47, 3-Methyl-N-((3-(pyridin-4-yl)-1H-1,2,4-triazol-5-yl)methyl)thiophene-2-carboxamide]: more than 5.30 and more than 5.30.
Regarding `O=C(NCc1nnc(-c2ccnc3[nH]ccc23)o1)c1ccc(O)cc1O` [Example 76, N-((5-(1H-Pyrrolo[2,3-b]pyridin-4-yl)-1,3,4-oxadiazol-2-yl)methyl)-2,4-dihydroxybenzamide], the pIC50 in test [1] and in test [2] was more than 5.30 in each case.
In the case of `O=C(NCc1nc(-c2c[nH]c3ncccc23)n[nH]1)c1cccs1` [Example 70, N-((3-(1H-pyrrolo[2,3-b]pyridin-3-yl)-1H-1,2,4-triazol-5-yl)methyl)thiophene-2-carboxamide], the pIC50 in test [1] and in test [2] was more than 5.30 throughout.
`Cc1cccc(C(=O)NCc2cc(-c3ccncc3)n[nH]2)c1O` [Example 10, 2-hydroxy-3-methyl-N-((3-(pyridin-4-yl)-1H-pyrazol-5-yl)methyl)benzamide]: the pIC50 in test [1] and in test [2] was more than 5.30 each time.
Take `O=S(=O)(NCc1nc(-c2ccncc2)n[nH]1)c1ccc(O)cc1` [Example 55, 4-Hydroxy-N-((3-(pyridin-4-yl)-1H-1,2,4-triazol-5-yl)methyl)benzenesulfonamide]: the pIC50 in test [1] and in test [2] was less than 5.30 in each case.
As to `CS(=O)(=O)Nc1ccc(C(=O)NCc2nc(-c3ccncc3)n[nH]2)cc1` [Example 44, 4-(Methylsulfonamido)-N-((3-(pyridin-4-yl)-1H-1,2,4-triazol-5-yl)methyl)benzamide], the pIC50 in test [1] and in test [2] was less than 5.30 each time.
With `COc1cccc(C(=O)NCc2nc(-c3c[nH]c4ncccc34)cs2)c1` [Example 74, N-((4-(1H-pyrrolo[2,3-b]pyridin-3-yl)thiazol-2-yl)methyl)-3-methoxybenzamide], the pIC50 in test [1] and in test [2] was more than 5.30 each time.
For the compound `COc1ccc(C(=O)NCc2nc(-c3ccncc3)no2)cc1` [Example 4, 4-methoxy-N-((3-(pyridin-4-yl)-1,2,4-oxadiazol-5-yl)methyl)benzamide], the pIC50 in test [1] and in test [2] was less than 5.30 each time.
As for `Oc1ccc(C(O)CCc2nc(-c3ccncc3)n[nH]2)cc1` (stereo not shown) [Example 64, 4-(1-hydroxy-3-(3-(pyridin-4-yl)-1H-1,2,4-triazol-5-yl)propyl)phenol], the pIC50 in test [1] and in test [2] was less than 5.30 in each case.
Regarding `Cc1ccc(C(=O)NCc2nc(-c3ccncc3)n[nH]2)c(O)c1` [Example 27, 2-hydroxy-4-methyl-N-((3-(pyridin-4-yl)-1H-1,2,4-triazol-5-yl)methyl) benzamide], the pIC50 in test [1] and in test [2] was more than 5.30 in each case.
`Cn1nc(-c2ccncc2)nc1CNC(=O)c1cccs1` [Example 50, N-((1-Methyl-3-(pyridin-4-yl)-1H-1,2,4-triazol-5-yl)methyl)thiophene-2-carboxamide]: the pIC50 in test [1] and in test [2] was less than 5.30 in each case.
As to `COc1cccc(O)c1C(=O)NCc1nc(-c2ccncc2)n[nH]1` [Example 23, 2-hydroxy-6-methoxy-N-((3-(pyridin-4-yl)-1H-1,2,4-triazol-5-yl)methyl)benzamide], the pIC50 in test [1] and in test [2] was more than 5.30 throughout.
For the compound `CC(C)(C)C(=O)Oc1ccc(C(=O)NCc2nc(-c3ccncc3)n[nH]2)cc1` [Example 38, 4-((3-(Pyridin-4-yl)-1H-1,2,4-triazol-5-yl)methylcarbamoyl)phenyl pivalate], the pIC50 in test [1] and in test [2] was less than 5.30 throughout.
Regarding `CC(C)(C)OC(=O)NCC[C@H](NC(=O)c1ccc(O)cc1O)c1nc(-c2ccncc2)n[nH]1` [Example 77, (S)-tert-Butyl 3-(2,4-dihydroxybenzamido)-3-(3-(pyridin-4-yl)-1H-1,2,4-triazol-5-yl)propylcarbamate], the pIC50 in test [1] and in test [2] was more than 5.30 throughout.
For the compound `O=C(O)c1ccc(C(=O)NCc2nc(-c3ccncc3)n[nH]2)cc1` [Example 31, 4-((3-(Pyridin-4-yl)-1H-1,2,4-triazol-5-yl)methylcarbamoyl)benzoic acid], the pIC50 is more than 5.30 in test [1] and less than 5.30 in test [2].
